Reference: US20050019420A1, “Fungicide composition comprising pyrimethanil and at least a phosphorous acid derivative and use thereof for fighting against plant diseases” (priority 2001, published 2005)

Test system: Venturia inaequalis
Experiment: Apple tree scab field trial, preventive spray programme
Assay type: in vivo
Details: for % of leaves attacked: apple tree Rome Beauty
Description: Apple Tree—Venturia inaequalis
The following fungicides are compared: • Pyrimethanil at the dose of 20 g/hl and mixtures. • fosetyl-Al+pyrimethanil at the doses of 50+20 and 100+20 g/hl applied in a plant protection mixture volume of 1 200 l/ha.
The products are applied to an apple tree (Rome Beauty variety) which is sensitive to Venturia inaequalis.
The various products to be studied are sprayed every 7, 10 or 13 days (9, 7 and 6 applications in total respectively) in a program of treatment starting on 28 Mar. 2001.
Scores are awarded for the disease (% foliar surface area destroyed) on 14 May and 11 Jun. 2001. The results are expressed as % of leaves attacked.

| SMILES | persistence of the action of pyrimethanil (addition of fosetyl-Al to pyrimethanil, applications every 10 to 13 days compared with weekly applications) | % of leaves attacked (dose (20), sprayed every 7 days (9 applications), scored 11 June 2001) [%] | % of leaves attacked (dose (20), sprayed every 7 days (9 applications), scored 14 May 2001) [%] | % of leaves attacked (dose (200), sprayed every 10 days (7 applications), scored 11 June 2001) [%] | % of leaves attacked (dose (200), sprayed every 10 days (7 applications), scored 14 May 2001) [%] | % of leaves attacked (dose (200), sprayed every 13 days (6 applications), scored 11 June 2001) [%] | % of leaves attacked (dose (200), sprayed every 13 days (6 applications), scored 14 May 2001) [%] |
| --- | --- | --- | --- | --- | --- | --- | --- |
| CCO[PH](=O)O [fosetyl-AI, monoethyl ester-phosphonate-aluminum] | improve the persistence of the action of pyrimethanil | – | – | – | – | – | – |
| Cc1cc(C)nc(Nc2ccccc2)n1 [Pyrimethanil, pyrimethanil] | – | 27.7 | 14.7 | 33 | 16.2 | 32 | 16.3 |
